Reference: patent US20250228882A1, “ORALLY-BIOAVAILABLE NUCLEOSIDE ANALOGS” (Venatorx Pharmaceuticals, Inc., priority 2022, published 2025)
Read-outs that look alike come from different tables or passages of the source.

Assay: Bidirectional Caco-2 permeability assay
Format: in vitro ADME
Details: human
Description: The bidirectional permeability of compounds across the Caco-2 cell monolayer was assessed. The Caco-2 model is a widely used in vitro model for small intestinal absorption and potential for efflux. Cell culture. Caco-2 cells were grown in DMEM supplemented with 10% fetal bovine serum (FBS), 1% Penicillin-Streptomycin and 1% MEMNEAA. The cells were incubated at 37° C., 5% CO2/95% air and saturated humidity. After reaching 80-90% confluency, the cells were gently detached with trypsin. Cells at passage 39 were seeded on the 24-well BD insert system at the density of 8×10^4 cells/cm^2 and cultured for 19 days with medium changed every 2-3 days. Measure the transepithelial electrical resistance (TEER) value of each well. The wells can be used only when their TEER values are greater than 600 Ohms/cm^2.
Transport assay. After removing the cell culture medium from the 24-well insert plate, the cells were rinsed with warm transport buffer. Appropriate dosing and receiving solutions were applied to the donor and receiver chambers to initiate the transport assay in apical to basolateral (A to B) or basolateral to apical (B to A) directions (500 and 1300 μL for apical and basolateral wells, respectively). Duplicate wells in each direction were used for the test compound and control compound. The plate was incubated in CO2 incubator at 37° C., with 5% CO2/95% air and saturated humidity without shaking. The sample after 10-minute incubation was used as the To sample, and the sample after 90-minute incubation was used as the T90 sample. To and T90 samples were collected from the donor and receiver side of each well at the designed timepoint, mixed with the transport buffer and acetonitrile/MeOH (1:1, v/v) and the internal standard for LC/MS/MS analysis. All samples were vortexed and centrifuged at 4000 rpm at 4° C. for 15 minutes, diluted with pure water and stored at 4° C. before bioanalysis by LC/MS/MS.
Sample analysis. The concentrations of test compounds and control compounds in Caco-2 cells were quantitatively determined by LC/MS/MS method after protein precipitation.
Calculations. The apparent permeability (Papp, cm/s), efflux ratio (ER) and recovery parameters were calculated for Caco-2 drug transport assay using the following equations: […]
where VR is the solution volume in the receiver chamber (0.4 mL on the apical side, 1.2 mL on the basolateral side); Area is the surface area for the insert membrane, i.e., 0.3 cm^2 for the area of the monolayer; Time is incubation time, expressed in seconds, i. e., 5400 s (90 min) for the current experiment; Co is the initial concentration of test compound or peak area ratio of control compounds in the donor chamber (M); VD is the volume in the donor chambers (0.4 mL on the apical side, 1.2 mL on the basolateral side); CD and CR are the final concentrations of test compounds or peak area ratio of control compounds in donor and receiver chambers, respectively.
Compounds with Papp<1.0 are classified as low permeability, Papp between 1-10 are classified as medium permeability, and Papp>10 are classified as high permeability. An efflux ratio (ER)>2 indicates the compounds are potential substrates for intestinal cell efflux transporters.

[1] = Caco-2 monolayer, apical to basolateral, 90-minute incubation, read-out: Papp, A-B
[2] = Caco-2 monolayer, basolateral to apical, 90-minute incubation, read-out: Papp, B-A
[3] = Caco-2 monolayer, ER>2 indicates potential efflux substrate, read-out: ER (efflux ratio)

## CCC(CC)C(=O)Nc1ncnn2c([C@]3(C#N)O[C@H](COC(=O)CC4CCCC4)[C@@H](OC(=O)[C@H](N)C(C)(C)C)[C@H]3O)ccc12 [Compound 76, (2R,3S,4R,5R)-5-cyano-2-((2-cyclopentylacetoxy)methyl)-5-(4-(2-ethylbutanamido)pyrrolo[2,1-f][1,2,4]triazin-7-yl)-4-hydroxytetrahydrofuran-3-yl (R)-2-amino-3,3-dimethylbutanoate]
Caco-2
  Papp A→B at 90 min: 2.5 ×10⁻⁶ cm/s
  Papp B→A at 90 min: 2.4 ×10⁻⁶ cm/s
  efflux ratio at 90 min: 1

## CCCCOC(=O)Nc1ncnn2c([C@]3(C#N)O[C@H](COC(=O)CC4CCCCCC4)[C@@H](OC(=O)[C@@H](N)C(C)(C)C)[C@H]3O)ccc12 [Compound 65, (2R,3S,4R,5R)-5-(4-((butoxycarbonyl)amino)pyrrolo[2,1-f][1,2,4]triazin-7-yl)-5-cyano-2-((2-cycloheptylacetoxy)methyl)-4-hydroxytetrahydrofuran-3-yl (S)-2-amino-3,3-dimethylbutanoate]
Caco-2
  Papp A→B at 90 min: 0.79 ×10⁻⁶ cm/s
  Papp B→A at 90 min: 0.5 ×10⁻⁶ cm/s
  efflux ratio at 90 min: 0.62

## COC(C)(C)C(=O)Nc1ncnn2c([C@]3(C#N)O[C@H](COC(=O)Cc4ccccc4)[C@@H](OC(=O)[C@@H](N)C(C)(C)C)[C@H]3O)ccc12 [Compound 5, (2R,3S,4R,5R)-5-cyano-4-hydroxy-5-(4-(2-methoxy-2-methylpropanamido)pyrrolo[2,1-f][1,2,4]triazin-7-yl)-2-((2-phenylacetoxy)methyl)tetrahydrofuran-3-yl (S)-2-amino-3,3-dimethylbutanoate]
[1]
  Papp A→B at 90 min: 17.7 ×10⁻⁶ cm/s
[2]
  Papp B→A at 90 min: 16.5 ×10⁻⁶ cm/s
[3]
  efflux ratio at 90 min: 0.93

## CCOC(C)(C)C(=O)Nc1ncnn2c([C@]3(C#N)O[C@H](COC(=O)CC4CCC4)[C@@H](OC(=O)[C@@H](N)C(C)(C)C)[C@H]3O)ccc12 [Compound 49, (2R,3S,4R,5R)-5-cyano-2-((2-cyclobutylacetoxy)methyl)-5-(4-(2-ethoxy-2-methylpropanamido)pyrrolo[2,1-f][1,2,4]triazin-7-yl)-4-hydroxytetrahydrofuran-3-yl (S)-2-amino-3,3-dimethylbutanoate]
Caco-2
  Papp A→B at 90 min: 6.24 ×10⁻⁶ cm/s
  Papp B→A at 90 min: 5.67 ×10⁻⁶ cm/s
  efflux ratio at 90 min: 0.91

## CCCCCC(=O)Nc1ncnn2c([C@]3(C#N)O[C@H](COC(=O)CC4CCC4)[C@@H](OC(=O)[C@@H](N)C(C)(C)C)[C@H]3O)ccc12 [Compound 48, (2R,3S,4R,5R)-5-cyano-2-((2-cyclobutylacetoxy)methyl)-5-(4-hexanamidopyrrolo[2,1-f][1,2,4]triazin-7-yl)-4-hydroxytetrahydrofuran-3-yl (S)-2-amino-3,3-dimethylbutanoate]
Caco-2
  Papp A→B at 90 min: 2.02 ×10⁻⁶ cm/s
  Papp B→A at 90 min: 4.72 ×10⁻⁶ cm/s
  efflux ratio at 90 min: 2.34

## CC(C)[C@@H](C)C(=O)Nc1ncnn2c([C@]3(C#N)O[C@H](COC(=O)CC4CCCCC4)[C@@H](OC(=O)[C@@H](N)C(C)(C)C)[C@H]3O)ccc12 [Compound 14, (2R,3S,4R,5R)-5-cyano-2-((2-cyclohexylacetoxy)methyl)-5-(4-((R)-2,3-dimethylbutanamido)pyrrolo[2,1-f][1,2,4]triazin-7-yl)-4-hydroxytetrahydrofuran-3-yl (S)-2-amino-3,3-dimethylbutanoate]
Caco-2
  Papp A→B at 90 min: 1.96 ×10⁻⁶ cm/s
  Papp B→A at 90 min: 1.38 ×10⁻⁶ cm/s
  efflux ratio at 90 min: 0.7

## CCC(=O)O[C@H]1[C@@H](O)[C@](C#N)(c2ccc3c(NC(=O)OCOC(C)=O)ncnn23)O[C@@H]1COC(=O)[C@@H](N)C(C)(C)C [Compound 43, ((2R,3S,4R,5R)-5-(4-(((acetoxymethoxy)carbonyl)amino)pyrrolo[2,1-f][1,2,4]triazin-7-yl)-5-cyano-4-hydroxy-3-(propionyloxy)tetrahydrofuran-2-yl)methyl (S)-2-amino-3,3-dimethylbutanoate]
Caco-2
  Papp A→B at 90 min: 1.49 ×10⁻⁶ cm/s
  Papp B→A at 90 min: 1.02 ×10⁻⁶ cm/s
  efflux ratio at 90 min: 0.69

## CCCCC(=O)Nc1ncnn2c([C@]3(C#N)O[C@H](COC(=O)CC4CCC4)[C@@H](OC(=O)[C@@H](N)C(C)(C)C)[C@H]3O)ccc12 [Compound 47, (2R,3S,4R,5R)-5-cyano-2-((2-cyclobutylacetoxy)methyl)-4-hydroxy-5-(4-pentanamidopyrrolo[2,1-f][1,2,4]triazin-7-yl)tetrahydrofuran-3-yl (S)-2-amino-3,3-dimethylbutanoate]
Caco-2
  Papp A→B at 90 min: 4.57 ×10⁻⁶ cm/s
  Papp B→A at 90 min: 12.2 ×10⁻⁶ cm/s
  efflux ratio at 90 min: 2.68

## CCC(CC)C(=O)Nc1ncnn2c([C@]3(C#N)O[C@H](COC(=O)CC4CCCCC4)[C@@H](OC(=O)[C@H](N)C(C)(C)C)[C@H]3O)ccc12 [Compound 69, (2R,3S,4R,5R)-5-cyano-2-((2-cyclohexylacetoxy)methyl)-5-(4-(2-ethylbutanamido)pyrrolo[2,1-f][1,2,4]triazin-7-yl)-4-hydroxytetrahydrofuran-3-yl (R)-2-amino-3,3-dimethylbutanoate]
Caco-2
  Papp A→B at 90 min: 3.19 ×10⁻⁶ cm/s
  Papp B→A at 90 min: 4.38 ×10⁻⁶ cm/s
  efflux ratio at 90 min: 1.37

## CCCCOC(C)(C)C(=O)Nc1ncnn2c([C@]3(C#N)O[C@H](COC(=O)CC4CCCCCC4)[C@@H](OC(=O)[C@H](N)C(C)(C)C)[C@H]3O)ccc12 [Compound 75, (2R,3S,4R,5R)-5-(4-(2-butoxy-2-methylpropanamido)pyrrolo[2,1-f][1,2,4]triazin-7-yl)-5-cyano-2-((2-cycloheptylacetoxy)methyl)-4-hydroxytetrahydrofuran-3-yl(R)-2-amino-3,3-dimethylbutanoate]
Caco-2
  Papp A→B at 90 min: 0.22 ×10⁻⁶ cm/s
  Papp B→A at 90 min: 0.12 ×10⁻⁶ cm/s
  efflux ratio at 90 min: 0.52

## COC(C)(C)C(=O)Nc1ncnn2c([C@]3(C#N)O[C@H](COC(=O)CC4CCCCC4)[C@@H](OC(=O)[C@H](N)C(C)(C)C)[C@H]3O)ccc12 [Compound 68, (2R,3S,4R,5R)-5-cyano-2-((2-cyclohexylacetoxy)methyl)-4-hydroxy-5-(4-(2-methoxy-2-methylpropanamido)pyrrolo[2,1-f][1,2,4]triazin-7-yl)tetrahydrofuran-3-yl (R)-2-amino-3,3-dimethylbutanoate]
Caco-2
  Papp A→B at 90 min: 3.22 ×10⁻⁶ cm/s
  Papp B→A at 90 min: 4.04 ×10⁻⁶ cm/s
  efflux ratio at 90 min: 1.25

## COC(C)(C)C(=O)Nc1ncnn2c([C@]3(C#N)O[C@H](COC(=O)CC4CCCC4)[C@@H](OC(=O)[C@@H](N)C(C)(C)C)[C@H]3O)ccc12 [Compound 57, (2R,3S,4R,5R)-5-cyano-2-((2-cyclopentylacetoxy)methyl)-4-hydroxy-5-(4-(2-methoxy-2-methylpropanamido)pyrrolo[2,1-f][1,2,4]triazin-7-yl)tetrahydrofuran-3-yl (S)-2-amino-3,3-dimethylbutanoate]
Caco-2
  Papp A→B at 90 min: 16.4 ×10⁻⁶ cm/s
  Papp B→A at 90 min: 10.1 ×10⁻⁶ cm/s
  efflux ratio at 90 min: 0.61

## CC(=O)OCOC(=O)Nc1ncnn2c([C@]3(C#N)O[C@H](COC(=O)Cc4ccccc4)[C@@H](OC(=O)[C@@H](N)C(C)(C)C)[C@H]3O)ccc12 [Compound 30, (2R,3S,4R,5R)-5-(4-(((acetoxymethoxy)carbonyl)amino)pyrrolo[2,1-f][1,2,4]triazin-7-yl)-5-cyano-4-hydroxy-2-((2-phenylacetoxy)methyl)tetrahydrofuran-3-yl (S)-2-amino-3,3-dimethylbutanoate]
[1]
  Papp A→B at 90 min: 0.09 ×10⁻⁶ cm/s
[2]
  Papp B→A at 90 min: 3.11 ×10⁻⁶ cm/s
[3]
  efflux ratio at 90 min: 34.6

## CCCCOC(C)(C)C(=O)Nc1ncnn2c([C@]3(C#N)O[C@H](COC(=O)CC4CCCCC4)[C@@H](OC(=O)[C@H](N)C(C)(C)C)[C@H]3O)ccc12 [Compound 73, (2R,3S,4R,5R)-5-(4-(2-butoxy-2-methylpropanamido)pyrrolo[2,1-f][1,2,4]triazin-7-yl)-5-cyano-2-((2-cyclohexylacetoxy)methyl)-4-hydroxytetrahydrofuran-3-yl (R)-2-amino-3,3-dimethylbutanoate]
Caco-2
  Papp A→B at 90 min: 0.24 ×10⁻⁶ cm/s
  Papp B→A at 90 min: 0.53 ×10⁻⁶ cm/s
  efflux ratio at 90 min: 2.23

## CCCCC(=O)Nc1ncnn2c([C@]3(C#N)O[C@H](COC(=O)CC4CCCC4)[C@@H](OC(=O)[C@@H](N)C(C)(C)C)[C@H]3O)ccc12 [Compound 54, (2R,3S,4R,5R)-5-cyano-2-((2-cyclopentylacetoxy)methyl)-4-hydroxy-5-(4-pentanamidopyrrolo[2,1-f][1,2,4]triazin-7-yl)tetrahydrofuran-3-yl (S)-2-amino-3,3-dimethylbutanoate]
Caco-2
  Papp A→B at 90 min: 3.41 ×10⁻⁶ cm/s
  Papp B→A at 90 min: 5.47 ×10⁻⁶ cm/s
  efflux ratio at 90 min: 1.6
